From ChEMBL document CHEMBL5506008, “Synthesis and biological evaluation of 1-phenyl-tetrahydro-β-carboline-based first dual PRMT5/EGFR inhibitors as potential anticancer agents” (Eur J Med Chem, 2024)

Tests used:
[1] = target: Protein arginine N-methyltransferase 5 (Homo sapiens, UniProt O14744); experiment: Inhibition of PRMT5 (unknown origin) by radiometric-based scintillation proximity assay
[2] = target: Epidermal growth factor receptor (Homo sapiens, UniProt P00533); experiment: Inhibition of wild type GST-tagged EGFR catalytic domain (unknown origin) expressed in insect cells using poly(Glu-Tyr) as substrate incubated for 6 mins by ELISA; design: species or system Insect cell
Chain of Epidermal growth factor receptor (P00533 whole entry, the tested form may be a part): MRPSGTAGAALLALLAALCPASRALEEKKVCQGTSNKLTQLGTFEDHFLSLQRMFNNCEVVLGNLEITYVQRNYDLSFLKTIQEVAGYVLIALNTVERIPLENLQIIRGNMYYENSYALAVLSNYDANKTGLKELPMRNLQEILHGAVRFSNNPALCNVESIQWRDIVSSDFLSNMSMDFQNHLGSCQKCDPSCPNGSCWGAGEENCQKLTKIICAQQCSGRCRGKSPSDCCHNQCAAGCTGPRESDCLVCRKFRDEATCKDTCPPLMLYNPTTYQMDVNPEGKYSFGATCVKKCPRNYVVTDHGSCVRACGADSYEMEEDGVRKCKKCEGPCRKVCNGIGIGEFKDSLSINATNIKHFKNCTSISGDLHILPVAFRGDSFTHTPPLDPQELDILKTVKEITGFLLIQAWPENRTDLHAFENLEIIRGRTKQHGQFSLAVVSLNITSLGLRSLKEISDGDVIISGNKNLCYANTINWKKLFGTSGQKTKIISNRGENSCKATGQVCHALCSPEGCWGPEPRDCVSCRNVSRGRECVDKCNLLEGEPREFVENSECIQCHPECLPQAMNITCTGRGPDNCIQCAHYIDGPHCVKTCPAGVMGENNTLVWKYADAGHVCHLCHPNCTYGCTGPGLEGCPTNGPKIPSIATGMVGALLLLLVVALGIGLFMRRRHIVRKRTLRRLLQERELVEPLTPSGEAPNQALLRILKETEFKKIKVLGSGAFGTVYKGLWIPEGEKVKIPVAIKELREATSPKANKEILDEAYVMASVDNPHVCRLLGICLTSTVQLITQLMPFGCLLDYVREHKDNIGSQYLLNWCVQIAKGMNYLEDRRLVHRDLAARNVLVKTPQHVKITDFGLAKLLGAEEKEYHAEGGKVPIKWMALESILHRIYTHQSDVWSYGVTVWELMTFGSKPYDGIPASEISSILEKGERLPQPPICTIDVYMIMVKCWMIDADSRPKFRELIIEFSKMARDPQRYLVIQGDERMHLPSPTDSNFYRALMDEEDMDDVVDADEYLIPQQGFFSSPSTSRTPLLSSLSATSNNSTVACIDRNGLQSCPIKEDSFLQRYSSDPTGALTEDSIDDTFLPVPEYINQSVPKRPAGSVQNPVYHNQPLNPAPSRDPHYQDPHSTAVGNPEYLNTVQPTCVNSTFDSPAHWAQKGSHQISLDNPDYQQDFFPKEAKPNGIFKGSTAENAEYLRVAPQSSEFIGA

A549 = experiment: Antiproliferative activity against human A549 cells assessed as inhibition of cell growth by CCK-8 assay
MCF7 = experiment: Antiproliferative activity against human MCF7 cells assessed as inhibition of cell growth by CCK-8 assay
HeLa = experiment: Antiproliferative activity against human HeLa cells assessed as inhibition of cell growth by CCK-8 assay
MDA-MB-231 = experiment: Antiproliferative activity against human MDA-MB-231 cells assessed as inhibition of cell growth by CCK-8 assay
HepG2 = experiment: Antiproliferative activity against human HepG2 cells assessed as inhibition of cell growth by CCK-8 assay
[3] = Metabolic stability in human liver microsomes assessed as compound remaining at […] measured after 30 mins in presence of NADPH by LC-MS/MS analysis; assay type: ADME, Microsome; settings: read-out: Stability
[4] = Metabolic stability in rat liver microsomes assessed as compound remaining at […] measured after 30 mins in presence of NADPH by LC-MS/MS analysis; assay type: ADME, Microsome; settings: read-out: Stability
[5] = target: Protein arginine N-methyltransferase 1 (Homo sapiens, UniProt Q99873); experiment: Inhibition of PRMT1 (unknown origin) using [3H]SAM as substrate preincubated for 15 mins followed by substrate addition and measured after 60 mins by microbeta scintillation counting analysis
Chain of Protein arginine N-methyltransferase 1 (Q99873 whole entry): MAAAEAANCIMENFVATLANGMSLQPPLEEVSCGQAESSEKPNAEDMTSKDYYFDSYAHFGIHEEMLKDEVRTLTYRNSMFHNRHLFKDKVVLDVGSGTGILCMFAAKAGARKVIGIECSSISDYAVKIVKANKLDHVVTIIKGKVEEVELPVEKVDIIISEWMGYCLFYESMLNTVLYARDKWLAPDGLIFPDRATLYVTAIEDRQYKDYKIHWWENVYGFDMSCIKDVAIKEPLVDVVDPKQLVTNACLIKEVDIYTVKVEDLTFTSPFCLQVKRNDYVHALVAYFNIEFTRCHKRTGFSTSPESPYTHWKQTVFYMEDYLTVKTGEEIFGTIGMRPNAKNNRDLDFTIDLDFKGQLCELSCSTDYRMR

[6] = target: T1, Histone-arginine methyltransferase CARM1 (Homo sapiens, UniProt Q86X55); experiment: Inhibition of PRMT4 (unknown origin) preincubated for 15 mins followed by substrate addition and measured after 60 mins by AlphaLISA assay
T1 sequence (Q86X55 whole entry): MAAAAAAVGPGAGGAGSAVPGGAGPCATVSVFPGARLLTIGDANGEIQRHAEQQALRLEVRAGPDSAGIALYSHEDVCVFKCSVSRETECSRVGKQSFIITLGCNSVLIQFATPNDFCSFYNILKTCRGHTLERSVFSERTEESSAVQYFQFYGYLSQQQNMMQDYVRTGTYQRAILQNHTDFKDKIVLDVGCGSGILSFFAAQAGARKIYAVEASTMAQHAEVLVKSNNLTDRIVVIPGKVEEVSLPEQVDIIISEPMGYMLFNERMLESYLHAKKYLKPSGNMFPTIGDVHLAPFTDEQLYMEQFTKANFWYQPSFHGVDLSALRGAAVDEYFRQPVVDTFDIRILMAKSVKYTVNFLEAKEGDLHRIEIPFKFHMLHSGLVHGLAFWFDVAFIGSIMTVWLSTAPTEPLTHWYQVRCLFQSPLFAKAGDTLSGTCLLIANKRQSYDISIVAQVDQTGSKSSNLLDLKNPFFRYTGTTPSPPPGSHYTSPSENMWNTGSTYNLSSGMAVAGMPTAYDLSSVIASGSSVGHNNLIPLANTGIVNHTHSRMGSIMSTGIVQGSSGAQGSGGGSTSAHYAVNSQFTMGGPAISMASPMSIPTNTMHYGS

Chain of Protein arginine N-methyltransferase 5 (O14744 whole entry, the tested form may be a part): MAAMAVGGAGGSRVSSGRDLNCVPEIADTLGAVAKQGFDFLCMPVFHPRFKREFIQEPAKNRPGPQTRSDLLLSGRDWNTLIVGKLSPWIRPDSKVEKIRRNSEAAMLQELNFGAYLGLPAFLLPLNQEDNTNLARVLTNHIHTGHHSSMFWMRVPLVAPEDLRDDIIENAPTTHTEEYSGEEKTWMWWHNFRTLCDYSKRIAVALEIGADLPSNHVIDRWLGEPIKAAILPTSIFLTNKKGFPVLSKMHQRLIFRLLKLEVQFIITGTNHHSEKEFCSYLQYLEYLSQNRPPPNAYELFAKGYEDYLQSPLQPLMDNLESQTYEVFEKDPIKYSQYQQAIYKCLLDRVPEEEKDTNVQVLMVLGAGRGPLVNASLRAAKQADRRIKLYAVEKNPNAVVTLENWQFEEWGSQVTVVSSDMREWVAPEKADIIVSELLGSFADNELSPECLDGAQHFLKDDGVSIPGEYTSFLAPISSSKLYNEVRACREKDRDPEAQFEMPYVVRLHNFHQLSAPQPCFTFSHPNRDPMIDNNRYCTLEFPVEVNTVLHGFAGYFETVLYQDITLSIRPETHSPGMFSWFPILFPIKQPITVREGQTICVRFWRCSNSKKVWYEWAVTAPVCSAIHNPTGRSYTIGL

| IC50 [1] | IC50 [2] | Structure (SMILES) | further results |
| --- | --- | --- | --- |
| > 100 µM | > 100 µM | CN1CCc2c([nH]c3ccccc23)C1c1ccc(NC(=O)c2cccc(C(F)(F)F)c2)cc1 (centres undefined) | – |
| > 100 µM | > 100 µM | COc1cc(C2NCCc3c2[nH]c2ccccc32)ccc1OCc1ccc(F)c(C(F)(F)F)c1 (centres undefined) | – |
| > 100 µM | 55.6 µM | COC(=O)c1ccc(COc2ccc(C3NCCc4c3[nH]c3ccccc43)cc2OC)c(F)c1 (centres undefined) | – |
| 87.3 µM | 73.7 µM | O=C(Nc1ccc(C2NCCc3c2[nH]c2ccccc32)cc1)c1cccc(C(F)(F)F)c1 (centres undefined) | – |
| 36.8 µM | 74.4 µM | COc1cc(C2NCCc3c2[nH]c2ccccc32)ccc1OCc1ccc(F)cc1Br (centres undefined) | IC50 (A549): 13.3 µM; IC50 (MCF7): 7.46 µM; IC50 (HeLa): 7.15 µM; IC50 (MDA-MB-231): 12.9 µM; IC50 (HepG2): > 50 µM; remaining at 0.5 h [3]: 61.1%; remaining at 0.5 h [4]: 66.5% |
| 21.3 µM | 52 µM | COC(=O)c1ccc(COc2ccc(C3NCCc4c3[nH]c3ccccc43)cc2OC)cc1 (centres undefined) | IC50 [5]: > 100 µM; IC50 [6]: > 100 µM; IC50 (A549): 18.7 µM; IC50 (MCF7): 13.7 µM; IC50 (HeLa): 13.4 µM; IC50 (MDA-MB-231): > 50 µM; IC50 (HepG2): > 50 µM; remaining at 0.5 h [3]: 10.3%; remaining at 0.5 h [4]: 5.2% |
| > 100 µM | > 100 µM | CN1CCc2c([nH]c3ccccc23)C1c1ccc(NC(=O)c2cccc(F)c2)cc1 (centres undefined) | – |
| 66.4 µM | > 100 µM | O=C(Nc1ccc(C2NCCc3c2[nH]c2ccccc32)cc1)c1ccc(F)c(C(F)(F)F)c1 (centres undefined) | – |
| 23.2 µM | > 100 µM | COc1cc(COc2ccc(C3NCCc4c3[nH]c3ccccc43)cc2OC)ccc1F (centres undefined) | – |
| > 100 µM | – | O=C(Nc1ccc(C2NCCc3c2[nH]c2ccccc32)cc1)c1ccc(Br)cc1 (centres undefined) | – |
| > 100 µM | > 100 µM | CN1CCc2c([nH]c3ccccc23)C1c1ccc(NC(=O)c2ccc(F)c(C(F)(F)F)c2)cc1 (centres undefined) | – |
| 42.8 µM | 25.4 µM | COc1cc(C2NCCc3c2[nH]c2ccccc32)ccc1OCc1ccc(C(C)(C)C)cc1 (centres undefined) | IC50 (A549): 12.4 µM; IC50 (MCF7): 3.82 µM; IC50 (HeLa): 4.43 µM; IC50 (MDA-MB-231): 20.5 µM; IC50 (HepG2): 26.4 µM; remaining at 0.5 h [3]: 50.6%; remaining at 0.5 h [4]: 45.4% |
| > 100 µM | – | O=C(Nc1ccc(C2NCCc3c2[nH]c2ccccc32)cc1)c1ccc(F)cc1 (centres undefined) | – |
| 59.7 µM | 51.5 µM | O=C(Oc1ccc(C2NCCc3c2[nH]c2ccccc32)cc1)c1ccccc1 (centres undefined) | remaining at 0.5 h [3]: 16.4%; remaining at 0.5 h [4]: 12.3% |
| > 100 µM | – | O=C(Nc1ccc(C2NCCc3c2[nH]c2ccccc32)cc1)c1ccc([N+](=O)[O-])cc1 (centres undefined) | – |
| > 100 µM | – | Cc1cccc(C(=O)Nc2ccc(C3NCCc4c3[nH]c3ccccc43)cc2)c1 (centres undefined) | – |
| > 100 µM | > 100 µM | CN1CCc2c([nH]c3ccccc23)C1c1ccc(NC(=O)c2cccc([N+](=O)[O-])c2)cc1 (centres undefined) | – |
| > 100 µM | – | O=C(Nc1ccc(C2NCCc3c2[nH]c2ccccc32)cc1)c1ccc(Cl)cc1 (centres undefined) | – |
| > 100 µM | 85.8 µM | COc1cc(C2NCCc3c2[nH]c2ccccc32)ccc1OCc1ccc(B2OC(C)(C)C(C)(C)O2)cc1 (centres undefined) | – |
| 70.4 µM | 80.6 µM | COc1cc(C2NCCc3c2[nH]c2ccccc32)ccc1OCc1ccc(C#N)cc1F (centres undefined) | IC50 (A549): 12.8 µM; IC50 (MCF7): 13.1 µM; IC50 (HeLa): 13.3 µM; IC50 (MDA-MB-231): 6.2 µM; IC50 (HepG2): > 50 µM; remaining at 0.5 h [3]: 40.6%; remaining at 0.5 h [4]: 35.9% |
| 46.3 µM | – | O=C(Nc1ccc(C2NCCc3c2[nH]c2ccccc32)cc1)c1cccc(Cl)c1 (centres undefined) | – |

| IC50 [1] | IC50 [2] | Structure (SMILES) | further results |
| --- | --- | --- | --- |
| 41.3 µM | 51.4 µM | COc1cc(C2NCCc3c2[nH]c2ccccc32)ccc1OCc1ccc(F)c(Br)c1 (centres undefined) | IC50 (A549): 7.08 µM; IC50 (MCF7): 7 µM; IC50 (HeLa): 6.86 µM; IC50 (MDA-MB-231): > 50 µM; IC50 (HepG2): 36 µM; remaining at 0.5 h [3]: 65.4%; remaining at 0.5 h [4]: 57.8% |
| > 100 µM | 87.6 µM | COc1cc(C2c3[nH]c4ccccc4c3CCN2C)ccc1OC(=O)c1ccccc1 (centres undefined) | – |
| > 100 µM | > 100 µM | CN1CCc2c([nH]c3ccccc23)C1c1ccc(OC(=O)c2ccccc2)cc1 (centres undefined) | – |
| > 100 µM | – | O=C(Nc1ccc(C2NCCc3c2[nH]c2ccccc32)cc1)c1ccccc1F (centres undefined) | – |
| 71.8 µM | 95.2 µM | O=C(Nc1ccc(C2NCCc3c2[nH]c2ccccc32)cc1)c1cccc(F)c1 (centres undefined) | – |
| > 100 µM | > 100 µM | CN1CCc2c([nH]c3ccccc23)C1c1ccc(NC(=O)c2cccc(Cl)c2)cc1 (centres undefined) | – |
| 74.5 µM | 56.3 µM | O=C(Nc1ccc(C2NCCc3c2[nH]c2ccccc32)cc1)c1ccccc1 (centres undefined) | – |
| 48.7 µM | 42.7 µM | COc1cc(C2NCCc3c2[nH]c2ccccc32)ccc1OC(=O)c1ccccc1 (centres undefined) | remaining at 0.5 h [3]: 20.6%; remaining at 0.5 h [4]: 15.1% |
| 32.4 µM | > 100 µM | COc1cc(C2NCCc3c2[nH]c2ccccc32)ccc1OCc1ccccc1 (centres undefined) | – |
| > 100 µM | – | O=C(Nc1ccc(C2NCCc3c2[nH]c2ccccc32)cc1)c1ccc(C(F)(F)F)cc1 (centres undefined) | – |
| > 100 µM | > 100 µM | COc1cc(C2NCCc3c2[nH]c2ccccc32)ccc1OCc1ccc(F)cc1 (centres undefined) | – |
| > 100 µM | – | O=C(Nc1ccc(C2NCCc3c2[nH]c2ccccc32)cc1)c1cc(C(F)(F)F)cc(C(F)(F)F)c1 (centres undefined) | – |
| > 100 µM | – | Cc1ccccc1C(=O)Nc1ccc(C2NCCc3c2[nH]c2ccccc32)cc1 (centres undefined) | – |
| > 100 µM | > 100 µM | CN1CCc2c([nH]c3ccccc23)C1c1ccc(NC(=O)c2ccccc2)cc1 (centres undefined) | – |
| 55.7 µM | > 100 µM | COc1cc(C2NCCc3c2[nH]c2ccccc32)ccc1OCc1ccccc1F (centres undefined) | – |
| 78.9 µM | 60.3 µM | O=C(Nc1ccc(C2NCCc3c2[nH]c2ccccc32)cc1)c1cccc([N+](=O)[O-])c1 (centres undefined) | – |
| 76.4 µM | > 100 µM | COc1cc(C2NCCc3c2[nH]c2ccccc32)ccc1OCc1ccc(F)cc1Cl (centres undefined) | – |
| > 100 µM | – | COC(=O)c1ccc(C(=O)Nc2ccc(C3NCCc4c3[nH]c3ccccc43)cc2)cc1 (centres undefined) | – |
| 46.9 µM | 62.4 µM | COc1cc(C2NCCc3c2[nH]c2ccccc32)ccc1OCc1ccc(OC(F)(F)F)c(Cl)c1 (centres undefined) | IC50 (A549): 13.1 µM; IC50 (MCF7): 6.59 µM; IC50 (HeLa): 6.92 µM; IC50 (MDA-MB-231): 13.3 µM; IC50 (HepG2): 40.4 µM; remaining at 0.5 h [3]: 70%; remaining at 0.5 h [4]: 76.6% |
| > 100 µM | > 100 µM | COc1cc(C2NCCc3c2[nH]c2ccccc32)ccc1OCc1ccc(F)c(C#N)c1 (centres undefined) | – |
